The nature of this series: recombinant barcode read abundance after kanamycin selection (control-corrected) (log10(CPM+1)); higher = more efficient recombination; sequences stand for … in AGTGCAGAGAAAATCGGCCAGTTTTCTCTGCCTGCAGTCCGCATGCCGT…AGATTTATGCAGCGGACTGCCTTTCTCCCAAAGTGATAAACCGGACAGTATCATGGACCGGTTTTCCCGGTAATCCGTATTTGCAAGGTTGGTTTCACT; site = the 11-nt target. How it is done:
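Pooled E. coli target-specificity screen for the IS621 bridge recombinase. Each library plasmid pairs an 11-nt target (CT core) with a bridge RNA whose target-binding loop (9-nt LTG + 4-nt RTG) is reprogrammed; the rest of the 177-nt WT IS621 bridge RNA scaffold is fixed. The plasmid is co-electroporated with a WT donor plasmid; recombinase is induced with 0.1 mM IPTG and recombinants are selected on kanamycin. Recombinant barcodes are sequenced, converted to CPM, averaged over two biological replicates and corrected by the unselected control CPM. Molecule = full bridge RNA written as DNA: LTG = specificity nt 1-9, RTG = reverse complement of specificity nt 8-11, in the WT scaffold.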
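Also: IS621 recombinase and bridge RNA in Escherichia coli cells.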

On to “ACGACTTCTTGGGTTCTAACCTGTTGCCT (site ACGACTCCTAG)”, for which the “recombinant barcode read abundance (log10)” value was 0.167. For the sequence “ACGACTTCTTGGGTTCTAACCTGTTGCCT (site ACGACTGCTAG)”, the “recombinant barcode read abundance (log10)” value came out at 0. Turning to “ACGACTTCTTGGGTTCTAACCTGTTGCCT (site ACGACTTCTAG)”, the “recombinant barcode read abundance (log10)” value is 0.731. Under “ACGAGTCCTTGGGTTCTAACCTGTTGCTT (site ACGAATCCTAA)” stands 0.365. Under “ACGAGTCCTTGGGTTCTAACCTGTTGCTT (site ACGACTCCTAA)” stands 0.161; under “ACGAGTCCTTGGGTTCTAACCTGTTGCTT (site ACGAGTCCTAA)”, 0.606; under “ACGAGTCCTTGGGTTCTAACCTGTTGCTT (site ACGATTCCTAA)”, 0.0892. As to “ACGCCTCCTTGGGTTCTAACCTGTTGCTG (site ACGACTCCTCA)”, the “recombinant barcode read abundance (log10)” value was determined as 0.0447. Under “ACGCCTCCTTGGGTTCTAACCTGTTGCTG (site ACGCCTCCTCA)” stands 0.384. The result for “ACGCCTCCTTGGGTTCTAACCTGTTGCTG (site ACGGCTCCTCA)” reads 0.269; that for “ACGCCTCCTTGGGTTCTAACCTGTTGCTG (site ACGTCTCCTCA)”, 0.175. Consider “ACGCGGCCTTGGGTTCTAACCTGTTGCCT (site ACGCGGCCTAG)”, for which the “recombinant barcode read abundance (log10)” value was determined as 0.103.

Consider “ACGCGGCCTTGGGTTCTAACCTGTTGCCT (site CCGCGGCCTAG)”, for which the “recombinant barcode read abundance (log10)” value was determined as 0.42.

With “ACGCGGCCTTGGGTTCTAACCTGTTGCCT (site GCGCGGCCTAG)”, the “recombinant barcode read abundance (log10)” value was found to be 0.147. On to “ACGCGGCCTTGGGTTCTAACCTGTTGCCT (site TCGCGGCCTAG)”, for which the “recombinant barcode read abundance (log10)” value was determined as 0.108. Regarding “ACGCGTGCTTGGGTTCTAACCTGTTGCGG (site ACGCGTGCTCC)”, the “recombinant barcode read abundance (log10)” value turned out to be 0.727. As to “ACGCGTGCTTGGGTTCTAACCTGTTGCGG (site CTAGTAACTTG)”, the “recombinant barcode read abundance (log10)” value was found to be 0.019.

For “ACGGAATCTTGGGTTCTAACCTGTTGCCG (site ACGGAATCTCG)”, the “recombinant barcode read abundance (log10)” value was 0.46. As to “ACGGAATCTTGGGTTCTAACCTGTTGCCG (site TAAATCCCTTC)”, the “recombinant barcode read abundance (log10)” value is 0.245. Turning to “ACGGAGTCTTGGGTTCTAACCTGTTGCTA (site ACGGAGTCTTA)”, the “recombinant barcode read abundance (log10)” value was 1.3. “ACGGAGTCTTGGGTTCTAACCTGTTGCTA (site TACAGACCTCT)”: the “recombinant barcode read abundance (log10)” value stood at 0.0854. As to “ACGGCTACTTGGGTTCTAACCTGTTGCTT (site ACGGCTACTAA)”, the “recombinant barcode read abundance (log10)” value was found to be 0.83. Under “ACGGCTACTTGGGTTCTAACCTGTTGCTT (site GGTTAGTCTCG)” stands 0.0618.

Regarding “ACGGCTTCTTGGGTTCTAACCTGTTGCTA (site ACGGCTTCTTA)”, the “recombinant barcode read abundance (log10)” value came out at 0.494. For “ACGGCTTCTTGGGTTCTAACCTGTTGCTA (site AGGGCTTCTTA)”, the “recombinant barcode read abundance (log10)” value is 0.485. “ACGGGTGCTTGGGTTCTAACCTGTTGCCT (site ACGGGTGCTAG)”: the “recombinant barcode read abundance (log10)” value worked out at 1.86. Regarding “ACGGGTGCTTGGGTTCTAACCTGTTGCCT (site ACGGTTGCTAG)”, the “recombinant barcode read abundance (log10)” value amounted to 0.103.

As to “ACGTCACCTTGGGTTCTAACCTGTTGCCT (site ACGTCACCTAG)”, the “recombinant barcode read abundance (log10)” value worked out at 0.536. Regarding “ACGTCACCTTGGGTTCTAACCTGTTGCCT (site CCGTCACCTAG)”, the “recombinant barcode read abundance (log10)” value was determined as 0.0656. The result for “ACGTCACCTTGGGTTCTAACCTGTTGCCT (site GCGTCACCTAG)” reads 0.221; that for “ACGTCACCTTGGGTTCTAACCTGTTGCCT (site TCGTCACCTAG)”, 0.17. As to “ACGTGGACTTGGGTTCTAACCTGTTGCTA (site ACGTGGACTTA)”, the “recombinant barcode read abundance (log10)” value was found to be 1.06. For “ACGTGGACTTGGGTTCTAACCTGTTGCTA (site GACAATGCTAT)”, the “recombinant barcode read abundance (log10)” value stood at 0.181. For “ACTAAACCTTGGGTTCTAACCTGTTGCCT (site ACTAAACCTAG)”, the “recombinant barcode read abundance (log10)” value is 0.866. Take “ACTAAACCTTGGGTTCTAACCTGTTGCCT (site GCTAACCCTAG)”: the “recombinant barcode read abundance (log10)” value stood at 0.246. Turning to “ACTAATCCTTGGGTTCTAACCTGTTGCTT (site ACTAATCCTAA)”, the “recombinant barcode read abundance (log10)” value is 0.236. In the case of “ACTAATCCTTGGGTTCTAACCTGTTGCTT (site CCTAATACTAA)”, the “recombinant barcode read abundance (log10)” value was determined as 0.105. As to “ACTAGGACTTGGGTTCTAACCTGTTGCGA (site ACTAGGACTAC)”, the “recombinant barcode read abundance (log10)” value came out at 0.0787. The result for “ACTAGGACTTGGGTTCTAACCTGTTGCGA (site ACTAGGACTCC)” reads 1.43. Under “ACTAGGACTTGGGTTCTAACCTGTTGCGA (site ACTAGGACTGC)” stands 0.0331.

Regarding “ACTAGGACTTGGGTTCTAACCTGTTGCGA (site ACTAGGACTTC)”, the “recombinant barcode read abundance (log10)” value turned out to be 2.27.

“ACTAGGTCTTGGGTTCTAACCTGTTGCTA (site ACTAGCTCTTA)”: the “recombinant barcode read abundance (log10)” value came out at 0.0718. As to “ACTAGGTCTTGGGTTCTAACCTGTTGCTA (site ACTAGGTCTTA)”, the “recombinant barcode read abundance (log10)” value was 1.04. The result for “ACTAGTCCTTGGGTTCTAACCTGTTGCCT (site ACTAGTCCTAA)” reads 0.233; that for “ACTAGTCCTTGGGTTCTAACCTGTTGCCT (site ACTAGTCCTAC)”, 0.649. Consider “ACTAGTCCTTGGGTTCTAACCTGTTGCCT (site ACTAGTCCTAG)”, for which the “recombinant barcode read abundance (log10)” value is 0.337. For “ACTAGTCCTTGGGTTCTAACCTGTTGCCT (site ACTAGTCCTAT)”, the “recombinant barcode read abundance (log10)” value was determined as 0.0393. For “ACTAGTGCTTGGGTTCTAACCTGTTGCCT (site AATAGTGCTAG)”, the “recombinant barcode read abundance (log10)” value was 0.111. The result for “ACTAGTGCTTGGGTTCTAACCTGTTGCCT (site ACTAGTGCTAG)” reads 0.117; that for “ACTAGTGCTTGGGTTCTAACCTGTTGCCT (site AGTAGTGCTAG)”, 0.0194; that for “ACTAGTGCTTGGGTTCTAACCTGTTGCCT (site ATTAGTGCTAG)”, 0.0112. For “ACTCACTCTTGGGTTCTAACCTGTTGCCT (site ACTCACTCTAG)”, the “recombinant barcode read abundance (log10)” value stood at 2.04. For “ACTCACTCTTGGGTTCTAACCTGTTGCCT (site CGATCTCCTGT)”, the “recombinant barcode read abundance (log10)” value stood at 0.0794.

Take “ACTCGGCCTTGGGTTCTAACCTGTTGCGA (site ACTCGGCCTTC)”: the “recombinant barcode read abundance (log10)” value was found to be 2.11.

On to “ACTCGGCCTTGGGTTCTAACCTGTTGCGA (site ACTGGGCCTTC)”, for which the “recombinant barcode read abundance (log10)” value amounted to 0.172.

With “ACTCGGCCTTGGGTTCTAACCTGTTGCGT (site ACTCGGCCTAC)”, the “recombinant barcode read abundance (log10)” value came out at 2.56. Take “ACTCGGCCTTGGGTTCTAACCTGTTGCGT (site ACTCGGCCTAG)”: the “recombinant barcode read abundance (log10)” value stood at 0.0703.

On to “ACTCTAACTTGGGTTCTAACCTGTTGCTT (site ACTATAACTAA)”, for which the “recombinant barcode read abundance (log10)” value is 0.154.

Take “ACTCTAACTTGGGTTCTAACCTGTTGCTT (site ACTCTAACTAA)”: the “recombinant barcode read abundance (log10)” value was determined as 0.121.

These data come from the supplement of paper PMC11208160.
